Experimental data reported in patent US11712433B2, “Compositions comprising PKM2 modulators and methods of treatment using the same” (priority 2019, dated 2023).

What was measured:
A549 lung cancer cells = experiment: A549 xenograft, traditional versus serine- and glycine-depleted diet (Example 4); type: in vivo, athymic nude mice; conditions: 100 mpk oral gavage qd x 21
Description: The traditional diet control was the Baker Amino Acid diet (catalog #5CC7, Test Diet) and the depleted diet was a modified Baker Amino Acid diet which compensated for serine and glycine depletion with increases in all remaining amino acids (catalog #5BJX, Test Diet).

MC38 tumors = experiment: Metabolite levels in treated versus vehicle-treated MC38 tumors; type: in vivo, mice; conditions: treated compared to vehicle-treated MC38 tumors
Description: Potential downstream biomarkers, including metabolism, immune gene alterations and immune phenotyping are currently under evaluation using LC-MS/MS, NanoString and flow cytometry.

A549 cells = experiment: GSH-Glo glutathione levels in A549 cells (Example 10); type: cell-based; conditions: concentration of 10, 24 hours, relative to DMSO
Experimental: A549 cells were prepared according to Example 3 above. […] Cells were treated for 24 hours, and then glutathione levels were determined using a GSH-Glo assay kit and procedure from Promega (catalog #V6912).

Nc1cccc(F)c1CN(CCC1CCS(=O)(=O)CC1)C(=O)c1cc(C(F)(F)F)n[nH]1 [compound of Structure (I)]
body weight (A549 lung cancer cells): no significant body weight reduction or fluctuation
tumor volume (A549 lung cancer cells; serine- and glycine-depleted diet versus traditional diet): best reduction of tumor volume
levels of glucose 6-phosphate in tumors (MC38 tumors): decreased
levels of glucose in tumors (MC38 tumors): Increased
levels of lactate in tumors (MC38 tumors): decreased
levels of phosphoenolpyruvate in tumors (MC38 tumors): decreased
levels of phosphoglycerate in tumors (MC38 tumors): decreased
glutathione levels (A549 cells): decreased levels of glutathione
